Source: ChEMBL document CHEMBL1138948, “Design, synthesis, and evaluation of proline and pyrrolidine based melanocortin receptor agonists. A conformationally restricted dipeptide mimic approach” (J Med Chem, 2006)
Non-standard residues stand in square brackets, D forms with d. Residues, ends and D or L forms follow the SMILES beside them. 2Nal = N[C@@H](Cc1ccc2ccccc2c1)C(=O)O

Experiments:
[1] = target: T1, Melanocyte-stimulating hormone receptor (Homo sapiens, UniProt Q01726); test: Displacement of europium labeled NDP-alpha-MSH from human MC1R expressed in HEK293 cells; type: cell-based
[2] = target: T2, Melanocortin receptor 3 (Homo sapiens, UniProt P41968); test: Displacement of europium labeled NDP-alpha-MSH from human MC3R expressed in HEK293 cells; type: cell-based
[3] = target: T3, Melanocortin receptor 4 (Homo sapiens, UniProt P32245); test: Displacement of europium labeled NDP-alpha-MSH from human MC4R expressed in HEK293 cells; type: cell-based
[4] = target: T1, Melanocyte-stimulating hormone receptor; test: Agonist activity at human MC1R transfected in HEK293 cells; type: functional, cell-based
[5] = target: T2, Melanocortin receptor 3; test: Agonist activity at human MC3R transfected in HEK293 cells; type: functional, cell-based
[6] = target: T3, Melanocortin receptor 4; test: Agonist activity at human MC4R transfected in HEK293 cells; type: functional, cell-based

T2 sequence (P41968 whole entry): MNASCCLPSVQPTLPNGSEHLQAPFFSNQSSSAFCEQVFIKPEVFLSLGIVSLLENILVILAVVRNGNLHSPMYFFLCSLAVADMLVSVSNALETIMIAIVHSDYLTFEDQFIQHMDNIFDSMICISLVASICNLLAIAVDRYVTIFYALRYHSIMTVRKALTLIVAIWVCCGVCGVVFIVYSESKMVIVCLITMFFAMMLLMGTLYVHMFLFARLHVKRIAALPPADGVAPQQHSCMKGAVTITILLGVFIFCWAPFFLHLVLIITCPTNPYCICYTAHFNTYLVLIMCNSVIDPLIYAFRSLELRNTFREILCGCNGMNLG
T1 sequence (Q01726 whole entry): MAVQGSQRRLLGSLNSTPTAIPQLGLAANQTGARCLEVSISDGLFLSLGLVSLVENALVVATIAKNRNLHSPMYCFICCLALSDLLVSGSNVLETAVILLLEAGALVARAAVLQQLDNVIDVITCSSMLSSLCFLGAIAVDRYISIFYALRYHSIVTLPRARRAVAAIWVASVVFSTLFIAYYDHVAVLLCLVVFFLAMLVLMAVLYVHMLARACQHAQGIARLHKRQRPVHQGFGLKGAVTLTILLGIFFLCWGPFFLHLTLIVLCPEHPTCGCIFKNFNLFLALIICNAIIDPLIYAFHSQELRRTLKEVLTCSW
T3 sequence (P32245 whole entry): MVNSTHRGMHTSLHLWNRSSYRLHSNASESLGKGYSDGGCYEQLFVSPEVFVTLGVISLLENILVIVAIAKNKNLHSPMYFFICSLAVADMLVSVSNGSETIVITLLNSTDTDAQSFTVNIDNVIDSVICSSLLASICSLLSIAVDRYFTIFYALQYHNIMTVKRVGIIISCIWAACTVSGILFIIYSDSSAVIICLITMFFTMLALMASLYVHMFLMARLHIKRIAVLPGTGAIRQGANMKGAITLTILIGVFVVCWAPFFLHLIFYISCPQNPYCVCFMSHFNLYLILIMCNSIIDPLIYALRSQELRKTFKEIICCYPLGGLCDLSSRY

| Compound | Ki [1] [nM] | Ki [2] [nM] | Ki [3] [nM] | EC50 [4] [nM] | EC50 [5] [nM] | EC50 [6] [nM] |
| --- | --- | --- | --- | --- | --- | --- |
| CC(=O)N[C@@H](Cc1ccc(O)cc1)C(=O)N[C@H](Cc1ccccc1)C(=O)N1C[C@@H](OCc2ccc3ccccc3c2)C[C@H]1CCCN=C(N)N | 2450 | 2880 | 492 | 1810 | 1170 | 252 |
| N=C(N)NCCC[C@@H]1C[C@@H](OCc2ccc3ccccc3c2)CN1C(=O)[C@@H](Cc1ccccc1)NC(=O)[C@@H]1CCCCN1 | 340 | 7440 | 1710 | 449 | – | 10800 |
| NC(=O)C[C@H](N)C(=O)N[C@H](Cc1ccccc1)C(=O)N1C[C@@H](OCc2ccc3ccccc3c2)C[C@@H]1CCCN=C(N)N | 103 | 835 | 187 | 4.3 | 10 | 8 |
| NC(N)=NCCC[C@H]1C[C@@H](OCc2ccc3ccccc3c2)CN1C(=O)[C@@H](Cc1ccccc1)NC(=O)CCc1ccccc1 | 611 | 403 | 137 | 585 | 2050 | 266 |
| NC(N)=NCCC[C@H]1C[C@@H](OCc2ccc3ccccc3c2)CN1C(=O)[C@@H](Cc1ccccc1)NC(=O)[C@@H]1CCCN1 | 55 | 219 | 46 | 52 | 593 | 17 |
| CC(=O)N[C@@H](CCC(N)=O)C(=O)N[C@H](Cc1ccccc1)C(=O)N1C[C@H](OCc2ccc3ccccc3c2)C[C@@H]1C(=O)NCCN=C(N)N | 893 | 1490 | 632 | 328 | 563 | 184 |
| CNC(=O)[C@H](Cc1ccc2ccccc2c1)NC(=O)[C@H](CCCN=C(N)N)NC(=O)[C@@H](Cc1ccccc1)NC(=O)[C@H](Cc1ccc(O)cc1)NC(C)=O (Ac-Y[dF]R[2Nal]-NHMe) | – | – | – | 20000 | – | – |
| CC(=O)N[C@@H](Cc1c[nH]cn1)C(=O)N[C@@H](Cc1ccccc1)C(=O)N[C@@H](CCCN=C(N)N)C(=O)N[C@@H](Cc1c[nH]c2ccccc12)C(N)=O | 35 | 2860 | – | 14 | 248 | – |
| CC(=O)N[C@@H](Cc1ccccc1)C(=O)N[C@H](Cc1ccccc1)C(=O)N1C[C@H](OCc2ccc3ccccc3c2)C[C@@H]1CCCN=C(N)N | 182 | 154 | 59 | 201 | 313 | 20 |
| NC(=O)C[C@H](N)C(=O)N[C@H](Cc1ccccc1)C(=O)N1C[C@@H](OCc2ccc3ccccc3c2)C[C@H]1CCCN=C(N)N | 1570 | 29100 | 8160 | 521 | 2990 | 1620 |
| CC(=O)N[C@@H](Cc1c[nH]cn1)C(=O)N[C@H](Cc1ccccc1)C(=O)N1C[C@@H](OCc2ccc3ccccc3c2)C[C@@H]1CCCN=C(N)N | 1.3 | 117 | 57 | 0.045 | 1.3 | 2.3 |
| CC(=O)N[C@@H](CCC(N)=O)C(=O)N[C@H](Cc1ccccc1)C(=O)N1C[C@H](OCc2ccc3ccccc3c2)C[C@@H]1CCCN=C(N)N | 35 | 50 | 18 | 45 | 42 | 4.3 |
| N=C(N)NCCC[C@@H]1C[C@H](OCc2ccc3ccccc3c2)CN1C(=O)[C@@H](Cc1ccccc1)NC(=O)[C@@H]1CCCCN1 | 1790 | 7160 | 2260 | 1070 | – | 515 |
| CC(=O)N[C@@H](Cc1cnc[nH]1)C(=O)N[C@H](Cc1ccccc1)C(=O)N1C[C@H](OCc2ccc3ccccc3c2)C[C@@H]1CCCN=C(N)N | 0.65 | 26 | 17 | 0.3 | 15 | 3.7 |
| N=C(N)NCCC[C@H]1C[C@H](OCc2ccc3ccccc3c2)CN1C(=O)[C@@H](Cc1ccccc1)NC(=O)[C@@H]1CCCCN1 | 125 | 1260 | 121 | 28 | 286 | 54 |
| CC(=O)N[C@@H](Cc1c[nH]cn1)C(=O)N[C@H](Cc1ccccc1)C(=O)N1C[C@H](OCc2ccc3ccccc3c2)C[C@H]1CCCN=C(N)N | 4.7 | 7230 | 2880 | 8 | 3720 | 986 |
| N=C(N)NCCC[C@@H]1C[C@@H](OCc2ccc3ccccc3c2)CN1C(=O)[C@@H](Cc1ccccc1)NC(=O)[C@@H]1Cc2ccccc2CN1 | 19 | 8100 | 4390 | 19 | 1470 | 1090 |
| CC(=O)N[C@@H](Cc1ccc(O)cc1)C(=O)N[C@H](Cc1ccccc1)C(=O)N1C[C@@H](OCc2ccc3ccccc3c2)C[C@@H]1CCCN=C(N)N | 138 | 425 | 248 | 71 | 68 | 39 |
| N=C(N)NCCNC(=O)[C@H]1C[C@@H](OCc2ccc3ccccc3c2)CN1C(=O)[C@@H](Cc1ccccc1)NC(=O)[C@@H]1CCCCN1 | 631 | 3850 | 1380 | 390 | 1770 | 292 |
| NC(N)=NCCNC(=O)[C@H]1C[C@@H](OCc2ccc3ccccc3c2)CN1C(=O)[C@@H](Cc1ccccc1)NC(=O)[C@@H](N)Cc1c[nH]cn1 | 15 | 703 | 760 | 24 | 266 | 249 |
| NC(N)=NCCC[C@H]1C[C@@H](OCc2ccc3ccccc3c2)CN1C(=O)[C@@H](Cc1ccccc1)NC(=O)[C@@H]1CCCCN1 | 40 | 156 | 31 | 30 | 260 | 14 |
| CNC(=O)[C@H](Cc1ccc2ccccc2c1)NC(=O)[C@H](CCCN=C(N)N)NC(=O)[C@H](N)Cc1ccccc1 | 4380 | 22600 | 2010 | 20000 | – | 809 |
| N=C(N)NCCC[C@H]1C[C@@H](OCc2ccc3ccccc3c2)CN1C(=O)[C@@H](Cc1ccccc1)NC(=O)[C@@H]1Cc2ccccc2CN1 | 42 | 86 | 10 | 98 | 232 | 10 |
| CNC(=O)[C@H](Cc1ccc2ccccc2c1)NC(=O)[C@H](CCCN=C(N)N)NC(=O)[C@@H](Cc1ccccc1)NC(=O)[C@H](Cc1c[nH]cn1)NC(C)=O | 13 | 1200 | 29 | 14 | 541 | 5.7 |
| CC(=O)N[C@@H](Cc1ccc(O)cc1)C(=O)N[C@H](Cc1ccccc1)C(=O)N1C[C@H](OCc2ccc3ccccc3c2)C[C@H]1CCCN=C(N)N | 1690 | 19200 | 2350 | 1750 | – | 20000 |
| N=C(N)NCCC[C@H]1C[C@H](OCc2ccc3ccccc3c2)CN1C(=O)[C@@H](Cc1ccccc1)NC(=O)[C@@H]1Cc2ccccc2CN1 | 562 | 529 | 97 | 72 | 214 | 36 |
| N=C(N)NCCC[C@@H]1C[C@H](OCc2ccc3ccccc3c2)CN1C(=O)[C@@H](Cc1ccccc1)NC(=O)[C@@H]1Cc2ccccc2CN1 | 1400 | 4180 | 670 | 1360 | 3150 | 457 |
| NC(=O)C[C@H](N)C(=O)N[C@H](Cc1ccccc1)C(=O)N1C[C@H](OCc2ccc3ccccc3c2)C[C@H]1CCCN=C(N)N | 443 | 15400 | 6670 | 402 | – | 20000 |
